Results on 21 molecules are retold here after patent publication US20220160617A1, “COMPOSITIONS AND METHODS FOR IMPROVING SKIN HEALTH AND FOR THE TREATMENT AND PREVENTION OF DISEASES, DISORDERS AND CONDITIONS ASSOCIATED WITH PATHOGENIC MICROBES” (DermBiont, Inc., priority 2019, published 2022).

The MIC is the lowest concentration found to suppress growth.

For experiment [1], the system named is Janthinobacterium lividum strains. Kind of experiment: Internal antibiotic resistance test (BD BBL Sensi-Disc zone of inhibition). Format: cell-based. The note with it: all 5 strains; disc content per antibiotic. The protocol: One Janthinobacterium lividum colony of 3-day old grown in 50% BHI agar was mixed well in 1 ml of 1×PBS buffer, diluted 10× and 100×, respectively. 200 μl of diluted Janthinobacterium lividum cells were evenly plated onto R2A/BHI agar plates in triplicate in 150 mm petri dishes. Antibiotic discs (BD BBL Sensi-Disc antimicrobial susceptibility test discs) were dispensed using a Disc dispenser (BD BBL Sensi-Disc Designer Dispenser System, 12-Place). Plates were incubated for 2-3 days at room temperature and imaged at the end of incubation.
The sensitivity of Janthinobacterium lividum to antibiotics is reflected by a clear zone of inhibition of Janthinobacterium lividum cells surrounding the antibiotic discs. The zone of inhibition was measured using ImageJ and was transformed into cm for analysis.

In experiment [2] the test system is E. Coli ATCC25922. Kind of experiment: Antibiotic MIC test. Format: cell-based.
In experiment [3] the test system is Janthinobacterium lividum (DBI001). As to the kind of experiment: Biolog Phenotype MicroArray: components enhancing growth of Janthinobacterium in media. It is filed as cell-based.
The test system of experiment [4] is Janthinobacterium lividum DB02473. Kind of experiment: Antibiotic MIC test. It is filed as cell-based. Here is the method: (§1) The antibiotic resistance profile and MICs tests were performed using Janthinobacterium lividum grown from cultures purified and grown in vegitone LB broth.
The subject of experiment [5] is Janthinobacterium lividum DB00121. Kind of experiment: Antibiotic MIC test. Format: cell-based. The protocol: as §1
Experiment [6] deals with Janthinobacterium lividum DB00118. Kind of experiment: Antibiotic MIC test. Format: cell-based. The protocol:
as §1

The test system of experiment [7] is Janthinobacterium lividum DB02378. Kind of experiment: Antibiotic MIC test. It is filed as cell-based. The protocol:
as §1

The subject of experiment [8] is Janthinobacterium lividum strains. Kind of experiment: Antibiotic MIC tests, sensitivity summary. Format: cell-based. The protocol: as §1
Experiment [9] concerns E. Coli ATCC25922. The following applies: cited from earlier work.
In experiment [10] the test system is fungal or bacterial pathogens. It is filed as cell-based. The following applies: components for enhancing function of human-derived Janthinobacterium lividum.
The mark [11] stands for this setting: Janthinobacterium lividum, DB00121.
Where [12] appears, read: Janthinobacterium lividum, DB02378.

≈ marks a conversion by molar mass, not a printed value. Where two headings read alike, the source gives them in different places. Where a SMILES comes first, the peptide text is derived from it. Bridges are numbered along the chain shown (N, C = ends). [ ]: non-standard residue; d: D form. The star is where a group is joined. Ileψ(thiazoline)Cys = CC[C@H](C)[C@H](N)C1=N[C@H](C(=O)*)CS1; dOrn = NCCC[C@@H](N)C(=O)O

For the molecule `CC1(C)S[C@@H]2[C@H](NC(=O)[C@H](N)c3ccccc3)C(=O)N2[C@H]1C(=O)O` [ampicillin], the “sensitivity of Janthinobacterium lividum to antibiotic disc” value (from here on “sensitivity … to antibiotic disc”) in experiment [1] is given as “sensitive”.

With `CCC[C@@H]1C[C@@H](C(=O)N[C@@H]([C@H]2O[C@H](SC)[C@H](O)[C@@H](O)[C@H]2O)[C@H](C)Cl)N(C)C1` [Clindamycin], the MIC in the experiment on E. Coli ATCC25922 [2] (Escherichia coli, read-out: MIC) was > 64 µg/mL.

As to `OC[C@@H](O)[C@@H](O)[C@H](O)[C@H](O)CO` [D-Mannitol], the “improvement of growth of human-derived Janthinobacterium lividum” value in experiment [3] is listed as “improve the growth”.

Turning to `[H]/N=C(/N)N[C@H]1[C@H](O)[C@@H](O)[C@H](O[C@@H]2O[C@@H](C)[C@](O)(C=O)[C@H]2O[C@@H]2O[C@@H](CO)[C@H](O)[C@@H](O)[C@@H]2NC)[C@@H](N/C(N)=N\[H])[C@@H]1O` [streptomycin], in experiment [1], the “sensitivity … to antibiotic disc” value is reported as “sensitive”.

Consider `O=C(O)c1cn(C2CC2)c2cc(N3CCNCC3)c(F)cc2c1=O` [Ciprofloxacin], for which, in [1], the “sensitivity … to antibiotic disc” value is listed as “sensitive”.

For the molecule `CC[C@H]1OC(=O)[C@H](C)[C@@H](O[C@H]2C[C@@](C)(OC)[C@@H](O)[C@H](C)O2)[C@H](C)[C@@H](O[C@@H]2O[C@H](C)C[C@H](N(C)C)[C@H]2O)[C@](C)(O)C[C@@H](C)C(=O)[C@H](C)[C@@H](O)[C@]1(C)O` [Erythromycin], the “sensitivity … to antibiotic disc” value in [1] is “sensitive”.

Take `CC(=O)OCC1=C(C(=O)O)N2C(=O)[C@@H](NC(=O)Cc3cccs3)[C@H]2SC1` [cephalothin]: in [1], the “sensitivity … to antibiotic disc” value is on record as “sensitive”.

For the molecule Neomycin, the MIC was 2 µg/mL in the experiment with E. Coli ATCC25922 [2]; 2 µg/mL in experiment [4] (strain DB02473); 1 µg/mL in [5] (strain DB00121); 2 µg/mL in experiment [6] (strain DB00118); 2 µg/mL in experiment [7] (strain DB02378).

Consider `CC[C@H](C)[C@H](N)C1=N[C@H](C(=O)N[C@@H](CC(C)C)C(=O)N[C@H](CCC(=O)O)C(=O)N[C@H](C(=O)N[C@H]2CCCCNC(=O)[C@H](CC(N)=O)NC(=O)[C@@H](CC(=O)O)NC(=O)[C@H](Cc3cnc[nH]3)NC(=O)[C@@H](Cc3ccccc3)NC(=O)[C@H]([C@@H](C)CC)NC(=O)[C@@H](CCCN)NC2=O)[C@@H](C)CC)CS1` [Bacitracin] ({Ileψ(thiazoline)Cys}-L[dE]IK[dOrn]I[dF]H[dD]N; lactam 4-C), for which the “sensitivity of Janthinobacterium lividum strains to antibiotic” value in [8] is “resistant”.

For the molecule `CO/N=C(\C(=O)N[C@@H]1C(=O)N2C(C(=O)[O-])=C(C[N+]3(C)CCCC3)CS[C@H]12)c1csc(N)n1` [Cefepime], the MIC in experiment [4] (Janthinobacterium lividum, DB02473) was determined as 0.125 µg/mL (≈ 0.26 µM); in experiment [5] (setting [11]) it was 0.125 µg/mL (≈ 0.26 µM); in [7] (setting [12]), 0.125 µg/mL (≈ 0.26 µM). Also, in the experiment on E. Coli ATCC25922 [9], the “MIC, CLSI QC ranges” value was 0.016 to 0.12 µg/mL.

With `CN(C)c1ccc(O)c2c1C[C@H]1C[C@H]3[C@H](N(C)C)C(O)=C(C(N)=O)C(=O)[C@@]3(O)C(O)=C1C2=O` [Minocycline], the MIC was determined as 0.125 µg/mL (≈ 0.273 µM) in experiment [6] (Janthinobacterium lividum, DB00118) and 0.125 µg/mL (≈ 0.273 µM) in experiment [7] (setting [12]).

Take `CO/N=C(\C(=O)N[C@@H]1C(=O)N2C(C(=O)O)=C(CSc3nc(=O)c(=O)[nH]n3C)CS[C@H]12)c1csc(N)n1` [Ceftriaxone]: in the experiment with E. Coli ATCC25922 [9], the “MIC, CLSI QC ranges” value was 0.03 to 0.12 µg/mL.

Turning to Tween 40, in experiment [10], the “Concentration Range of Efficacy” value was in the range of 2 to 20 mM. In addition, in [3], the “improvement of growth of human-derived Janthinobacterium lividum” value was “improve the growth”.

For the molecule penicillin, the “sensitivity … to antibiotic disc” value in [1] is listed as “sensitive”.

In turn, `C[C@H]1COc2c(N3CCN(C)CC3)c(F)cc3c(=O)c(C(=O)O)cn1c23` [Levofloxacin] gave a minimal inhibitory concentration (MIC) in [5] (setting [11]) of 0.125 µg/mL (≈ 0.346 µM).

Regarding Amoxicillin clavulanate, the minimum inhibitory concentration (MIC) against E. Coli ATCC25922 [2] was determined as 8 µg/mL; in [4] (strain DB02473) it was 1 µg/mL; in [5] (strain DB00121), 0.5 µg/mL; in experiment [6] (strain DB00118), 1 µg/mL; in [7] (strain DB02378), 1 µg/mL. Besides, the “sensitivity of Janthinobacterium lividum strains to antibiotic” value in experiment [8] was “less sensitive”.

As to `NCC[C@H](O)C(=O)N[C@@H]1C[C@H](N)[C@@H](O[C@H]2O[C@H](CN)[C@@H](O)[C@H](O)[C@H]2O)[C@H](O)[C@H]1O[C@H]1O[C@H](CO)[C@@H](O)[C@H](N)[C@H]1O` [Amikacin], the “MIC, CLSI QC ranges” value in the experiment on E. Coli ATCC25922 [9] is 0.5 to 4 µg/mL.

With `O=C(N[C@H](CO)[C@H](O)c1ccc([N+](=O)[O-])cc1)C(Cl)Cl` [Chloramphenicol], the “sensitivity … to antibiotic disc” value in experiment [1] is reported as “sensitive”. In the experiment with E. Coli ATCC25922 [9], the “MIC, CLSI QC ranges” value is 2 to 8 µg/mL. Moreover, the “sensitivity of Janthinobacterium lividum strains to antibiotic” value in experiment [8] is “less sensitive”.

With `C[C@@H](O)[C@H]1C(=O)N2C(C(=O)O)=C(S[C@@H]3CN[C@H](C(=O)N(C)C)C3)[C@H](C)[C@H]12` [Meropenem], the “MIC, CLSI QC ranges” value in the experiment on E. Coli ATCC25922 [9] was 0.008 to 0.06 µg/mL. Also, the “sensitivity of Janthinobacterium lividum strains to antibiotic” value in experiment [8] is recorded as “less sensitive”.

With `C[C@H]1[C@H](NC(=O)/C(=N\OC(C)(C)C(=O)O)c2csc(N)n2)C(=O)N1S(=O)(=O)O` [Aztreonam], in the experiment with E. Coli ATCC25922 [9], the “MIC, CLSI QC ranges” value is 0.06 to 0.25 µg/mL. The “sensitivity of Janthinobacterium lividum strains to antibiotic” value in experiment [8] is “less sensitive”.

As for `CN[C@H](CC(C)C)C(=O)N[C@H]1C(=O)N[C@@H](CC(N)=O)C(=O)N[C@H]2C(=O)N[C@H]3C(=O)N[C@H](C(=O)N[C@H](C(=O)O)c4cc(O)cc(O)c4-c4cc3ccc4O)[C@H](O)c3ccc(c(Cl)c3)Oc3cc2cc(c3O[C@@H]2O[C@H](CO)[C@@H](O)[C@H](O)[C@H]2O[C@H]2C[C@](C)(N)[C@H](O)[C@H](C)O2)Oc2ccc(cc2Cl)[C@H]1O` [vancomycin], the “sensitivity … to antibiotic disc” value in [1] was “sensitive”.
